Data taken from patent publication US20180094248A1, “Necroptosis Signaling as a Therapeutic Target for Alzheimer's Disease” (Arizona Board of Regents on behalf of Arizona State …, priority 2016, published 2018).

Tested on: phosphorylated MLKL
Assay: Western blot of total and phosphorylated MLKL in primary neurons (NeuN experiment)
Assay type: cell-based, mouse
Protocol: To probe for a direct link between necroptosis and neuronal loss in AD, we plated primary cortical neurons from APP/PS1 and wild type littermate mice. After seven days in vitro (DIV), neurons were treated with 10 μM of the necroptosis inhibitor 7-Cl-O-necrostatin (Nec15) or vehicle. Treatment was repeated at DIV 11. We then fixed neurons at DIV 11 and 15, and stained them for NeuN to count total number of neurons. […] To determine changes in necroptosis, we isolated proteins from neurons of the same four groups and measured the levels of total and phosphorylated MLKL by western blot.
Western blot and ELISA: The proteins were run using reducing conditions in precast gels (Thermo Fisher Scientific) and transferred to nitrocellulose membranes (iBlot, Thermo Fisher Scientific). […] The blots were then washed with TBS-T, and imaged/quantified using a LICOR Odyssey CLx (LI-COR Biosciences) attached to a Dell computer (OptiPlex 7010) running Windows 7 and Image Studio (version 1.0.11, LI-COR Biosciences). […]
Primary neuronal cultures—For the GFP experiments: Primary neurons were isolated from APP/PS1 and NonTg Po pups. […] Neurons were treated for a total of 15 days and the GFP fluorescence was measured every 4 days. […] All fluorescent measurements (excitation 488 nm, emission 509 nm) were performed using the Synergy HT multi-mode microplate reader with the Gen5 software (BioTek, Winooski, Vt.). […]

Q: Which pMLKL level (DIV 11, all four groups, NeuN experiment) does the source give for `CN1C(=O)NC(Cc2c[nH]c3c(Cl)cccc23)C1=O` (centres unmarked) [Nec1S, 5-((7-chloro-1 H-indol-3-yl)methyl)-3-methylimidazolidine-2,4-dione] here?
A: Its pMLKL level is “not detectable”.

Q: What about the “ratio pMLKL/MLKL” value (DIV 15, 10 μM, APP/PS1-veh group vs the other three groups incl. APP/PS1-Nec1S) of the same compound?
A: The value was “statistically different compared to the other three groups”.
